Data published in ChEMBL document CHEMBL3727361, “Nitrogen bicyclic compounds as inhibitors for Scyl1 and Grk5” (2014).
The source made the active and inactive calls. The rule behind the calls is not given here.

What was measured:
[1] = target: T1, N-terminal kinase-like protein (Mus musculus) (UniProt Q9EQC5); test: Inhibition of Scyl1 in mouse BetaTC6 cells assessed as reduction in increase in insulin release at 5 uM incubated for 2 hrs by ELISA; type: cell-based; conditions: Beta-TC6
T1 sequence (whole entry): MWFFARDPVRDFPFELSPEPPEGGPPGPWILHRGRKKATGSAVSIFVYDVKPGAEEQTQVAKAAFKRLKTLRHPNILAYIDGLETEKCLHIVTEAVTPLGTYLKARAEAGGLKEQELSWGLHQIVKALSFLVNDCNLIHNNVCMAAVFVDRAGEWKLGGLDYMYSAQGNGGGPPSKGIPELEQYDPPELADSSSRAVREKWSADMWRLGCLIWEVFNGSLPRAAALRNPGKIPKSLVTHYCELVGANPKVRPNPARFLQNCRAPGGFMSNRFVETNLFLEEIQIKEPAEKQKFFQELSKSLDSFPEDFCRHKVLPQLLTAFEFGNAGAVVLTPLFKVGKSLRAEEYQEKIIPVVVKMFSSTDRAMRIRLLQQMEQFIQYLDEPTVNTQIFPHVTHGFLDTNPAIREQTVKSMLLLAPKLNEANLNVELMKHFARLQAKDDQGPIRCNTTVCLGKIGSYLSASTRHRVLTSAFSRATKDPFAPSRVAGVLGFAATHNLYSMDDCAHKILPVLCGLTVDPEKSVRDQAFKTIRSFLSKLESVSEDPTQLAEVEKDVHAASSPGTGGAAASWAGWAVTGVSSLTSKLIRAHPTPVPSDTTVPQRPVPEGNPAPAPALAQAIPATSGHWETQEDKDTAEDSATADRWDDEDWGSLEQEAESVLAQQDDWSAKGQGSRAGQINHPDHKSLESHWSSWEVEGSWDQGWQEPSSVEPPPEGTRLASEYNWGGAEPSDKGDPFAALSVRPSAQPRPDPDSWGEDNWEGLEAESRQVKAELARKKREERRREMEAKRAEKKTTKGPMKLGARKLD

[2] = Effect on insulin release in mouse BetaTC6 cells assessed as ratio of insulin release incubated for 2 hrs in presence of low glucose media by ELISA relative to DMSO; type: cell-based; conditions: beta-tc6, 2 h
C2C12 [3] = test: Cytotoxic activity against mouse C2C12 cells assessed as inhibition of cell proliferation of at 2 uM incubated for 72 hrs by MTT assay; type: cell-based; conditions: c2c12, 72 h
[4] = target: T1, N-terminal kinase-like protein (Mus musculus); test: Inhibition of Scyl1 in mouse BetaTC6 cells assessed as increase in insulin release at 2 to 10 uM incubated for 2 hrs in presence of high glucose media by ELISA; type: cell-based; conditions: Beta-TC6
Beta-TC6 [5] = test: Increase in insulin release in mouse BetaTC6 cells assessed as relative insulin release activity at 10 uM incubated for 2 to 4 hrs by FRET based HTRF assay relative to sunitinib; type: functional
[6] = Cytotoxic activity against mouse BetaTC6 cells assessed as inhibition of cell proliferation at 2 to 10 uM incubated for 72 hrs by MTT assay; type: cell-based; conditions: beta-tc6, 72 h
C2C12 [7] = test: Cytotoxic activity against mouse C2C12 cells assessed as inhibition of cell proliferation of at 2 to 10 uM incubated for 72 hrs by MTT assay; type: cell-based; conditions: c2c12, 72 h
[8] = Cytotoxic activity against mouse BetaTC6 cells assessed as inhibition of cell proliferation at 10 uM incubated for 72 hrs by MTT assay; type: cell-based; conditions: beta-tc6, 72 h
Beta-TC6 [9] = test: Effect on insulin release in mouse BetaTC6 cells incubated for 2 hrs by ELISA; type: functional, cell-based
[10] = target: T1, N-terminal kinase-like protein (Mus musculus); test: Inhibition of GRK5 in mouse C2C12 cells assessed as increase in 2-NBDG uptake at 5 uM after 1 hr relative to DMSO; type: cell-based
Beta-TC6 [11] = test: Increase in insulin release in mouse BetaTC6 cells at 5 uM incubated for 2 hrs by ELISA; type: functional
[12] = target: RAC-alpha serine/threonine-protein kinase (Mus musculus) (UniProt P31750); test: Inhibition of Akt1 in mouse BetaTC6 cells assessed as increase in insulin release at 10 uM incubated for 2 hrs by ELISA; type: cell-based; design: scale not given: the % may be the effect or the level left; conditions: Beta-TC6
Chain of RAC-alpha serine/threonine-protein kinase (Mus musculus) (P31750 whole entry): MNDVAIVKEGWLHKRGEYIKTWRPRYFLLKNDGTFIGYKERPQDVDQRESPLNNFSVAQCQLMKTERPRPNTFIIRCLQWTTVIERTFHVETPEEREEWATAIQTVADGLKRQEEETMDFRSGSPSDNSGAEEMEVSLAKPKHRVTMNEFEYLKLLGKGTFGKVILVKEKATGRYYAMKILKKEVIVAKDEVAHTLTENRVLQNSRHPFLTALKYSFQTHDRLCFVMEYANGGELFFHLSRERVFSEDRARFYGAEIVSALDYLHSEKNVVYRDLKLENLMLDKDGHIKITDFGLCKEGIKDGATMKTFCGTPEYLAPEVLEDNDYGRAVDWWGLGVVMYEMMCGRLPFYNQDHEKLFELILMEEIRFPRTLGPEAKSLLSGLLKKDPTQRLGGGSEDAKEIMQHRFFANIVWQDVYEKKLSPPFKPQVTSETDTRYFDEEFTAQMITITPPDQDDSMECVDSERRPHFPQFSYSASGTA

Structure (SMILES) | Activity [2] | Activity (C2C12 [3]) | inhibition [4] | Activity (Beta-TC6 [5]) [%] | Activity (C2C12 [7]) | Activity [8] | further results
COc1cc(-c2ccc3ncc(-c4cccnc4)n3n2)cc(OC)c1OC | Non-toxic | Non-toxic | Dose-dependent effect | 20 | Toxic |  | inhibition [1]: 100%; Activity [6]: Non-toxic
CCN(CC)CCNC(=O)c1c(C)[nH]c(/C=C2\C(=O)Nc3ccc(F)cc32)c1C [SUNITINIB] |  |  |  |  |  | Toxic | 
COc1cc(-c2cnc3ccc(-c4cc(OC)c(OC)c(OC)c4)nn23)ccc1O | Non-toxic |  | Dose-dependent effect | 20 | Toxic |  | 
CN(C)CCNC(=O)c1cccc(-c2cnc3ccc(-c4cccc(NS(C)(=O)=O)c4)nn23)c1 | Non-toxic |  | Dose-dependent effect | 20 | Toxic | Toxic | 
COc1ccc(Cl)cc1C(=O)NCCc1ccc(S(=O)(=O)NC(=O)NC2CCCCC2)cc1 |  |  |  |  |  |  | Activity (Beta-TC6 [9]): inactive
COc1ncc(-c2cc(NC(C)=O)c3ncc(-c4cccc(C(=O)N(C)C)c4)n3c2)c(OC)n1 |  |  |  |  |  |  | fold change (FC) [10]: 1.73; Activity (Beta-TC6 [11]): -16.75%
CCCCCCCCCCCCCCCCCCOC[C@H](COP(=O)(O)O[C@H]1[C@H](O)[C@@H](O)[C@H](O)C[C@H]1OC)OC |  |  |  |  |  |  | Activity [12]: 0.75%
COc1ccc(-c2ccc3ncc(-c4ccncc4)n3n2)cc1OC | Non-toxic | Non-toxic | Dose-dependent effect | 20 | Toxic | Toxic | 
CC(=O)Nc1cccc(-c2ccc3ncc(-c4cccc(NC(C)=O)c4)n3n2)c1 | Non-toxic | Non-toxic | Dose-dependent effect | 20 | Toxic |  | Activity [6]: Non-toxic
CCCCNC(=O)NS(=O)(=O)c1ccc(C)cc1 |  |  |  |  |  |  | Activity (Beta-TC6 [9]): inactive
